For the experiment, the target named is T1, human 5-HT6 receptor (Homo sapiens, UniProt P50406).
T1 construct: host or cells: CHO-K1 cells, stably transfected; membranes prepared in house
Kind of experiment: Human 5-HT6 Receptor Binding Assay ([3H]LSD displacement, scintillation beads). Particulars: membranes of CHO-K1 cells with recombinant human 5-HT6, 4 nM [3H]LSD, read-out: h5-HT6 (Ki). The protocol: Human 5-HT6 Receptor Binding Assay
Membranes were prepared from CHO—K1 cells stably transfected with the human 5-HT6 receptor (Euroscreen; ES-316-C). The cells were grown in Gibco Advanced DMEM-F12 (Cat#12634010) containing 2% dialyzed FBS (Hyclone Cat#SH30079.03). The cells were harvested in phosphate buffered saline (PBS) containing 0.1 mM EDTA and pelleted by centrifugation (1000×g), the supernatant was discarded and the pellets were stored at −80° C. prior to membrane preparation. Membranes were prepared as previously described (J Bio Chem. 1992, 267 (14) 9844-51). Briefly, frozen cell pellet was resuspended in a lysis buffer containing 5 mM Tris-HCl (pH 7.5), 5 mM EDTA and 1 complete EDTA-free protease inhibitor tablet (Roche Applied Science, Indianapolis, Ind.) per 50 mL buffer, and homogenized with a tissue homogenizer. The cell lysate was then centrifuged at 40,000×g for 30 min at 4° C. to collect the membranes. The membrane pellets were washed in membrane buffer (50 mM Tris-HCl (pH 7.5), 0.6 mM EDTA, 5 mM MgCl2, 1 complete EDTA-free protease inhibitor tablet per 50 mL buffer) using a tissue homogenizer. The membranes were centrifuged at 40,000×g for 30 min at 4° C. and the pellets were resuspended in membrane buffer containing 250 mM sucrose, and protein concentration was determined using the Coomassie Plus kit (Pierce Biotechnology, Rockford, Ill.).
Membranes prepared from cells expressing recombinant human 5-HT6 receptor (h5-HT6) were resuspended in assay buffer containing 50 mM Tris HCl, (pH7.4), 4 mM CaCl2, 10 μg/mL saponin, and 0.1% (w/v) ascorbic acid. Membranes were preincubated using 1.75 μg membrane protein and 0.25 mg FlashBlue scintillation beads (PerkinElmer catalogue #FB001) per well at 4° for 30 min. […] Test compounds or assay controls for total and non-specific binding were diluted in DMSO as 100× solutions and serially diluted by half log concentrations on a Perkin Elmer JANUS Automated Workstation. Serotonin (10 μM final concentration) was used to determine non-specific binding in the assay. Plates were read using the Microbeta Trilux 1450 LSC and luminescence counter. Data were analyzed by nonlinear […] using the dose-response equation (variable slope) to calculate IC50 in XLfit4 (ID Business Solutions Inc.): y=(Bottom+((Top−Bottom)/(1+((IC50/x)^Hill slope))))
Ki value was then calculated according to the Cheng-Prusoff method using the equation below (Cheng and Prusoff, 1973): Ki,app=IC50/(1+[radioligand]/Kd))

Structures can show the parent of a compound that is named as a salt. Where two headings read alike, the source gives them in different places. A value given as a limit tells only on which side of the number the result lay.

T1 sequence (P50406 whole entry): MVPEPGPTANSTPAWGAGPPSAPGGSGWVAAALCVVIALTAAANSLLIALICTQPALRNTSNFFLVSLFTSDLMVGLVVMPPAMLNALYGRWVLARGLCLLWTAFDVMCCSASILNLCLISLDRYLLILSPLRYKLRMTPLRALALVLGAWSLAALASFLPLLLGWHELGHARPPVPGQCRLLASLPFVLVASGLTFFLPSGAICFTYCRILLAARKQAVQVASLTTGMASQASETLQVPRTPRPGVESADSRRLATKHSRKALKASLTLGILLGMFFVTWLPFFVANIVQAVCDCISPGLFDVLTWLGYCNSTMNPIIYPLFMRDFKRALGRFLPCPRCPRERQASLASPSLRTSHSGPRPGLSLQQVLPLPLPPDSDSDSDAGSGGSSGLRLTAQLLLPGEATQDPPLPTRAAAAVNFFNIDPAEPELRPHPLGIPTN

For the compound `CC(=O)N(C)CCC1NCCc2c1oc1ccc(S(=O)(=O)c3cccc(F)c3)cc21` (stereo not drawn) [Example 534, N-(2-{6-[(3-Fluorophenyl)sulfonyl]-1,2,3,4-tetrahydro[1]benzofuro[2,3-c]pyridin-1-yl}ethyl)-N-methylacetamide], the Ki (Table 1, class symbols) is below 500 nM. On the same count and under the same terms, to `CC12CCNCC1Oc1ccc(OS(=O)(=O)Cc3ccc(F)cc3)cc12` (stereo not drawn) [Example 790] belongs above 1000 nM; to `O=S(=O)(c1ccccc1)c1ccc2c3c(oc2c1)CN(CCO)CC3` [Example 592, 2-[7-(Phenylsulfonyl)-3,4-dihydro[1]benzofuro[2,3-c]pyridin-2(1H)-yl]ethanol], below 500 nM. `COc1cccc(S(=O)(=O)Oc2ccc3c(c2)C2CCNCC2O3)c1` (stereo not drawn) [Example 708]: the Ki (Table 1, class symbols) fell in the range of 500 to 1000 nM.

Consider `[O-][S+](c1cccc(OC(F)(F)F)c1)c1ccc2c3c(oc2c1)C1(CCOCC1)NCC3` (stereo not drawn) [Example 299, 7-{[3-(trifluoromethoxy)phenyl]sulfi-nyl}-2′,3,3′,4,5′,6′-hexahydro-2H-spiro[1-benzofuro[2,3-c]pyridine-1,4′-pyran]], for which the Ki (Table 1, class symbols) is below 500 nM.

For `O=S(=O)(c1cccc(F)c1)c1ccc2oc3c(c2c1)CCNC3CCC(F)(F)F` (stereo not drawn) [Example 519], the Ki (Table 1, class symbols) was in the range of 500 to 1000 nM. The same measure, in the same setting: under `Cc1ncccc1S(=O)(=O)c1ccc2c3c(oc2c1)C(C)(C)NCC3` [Example 375] stands below 500 nM.

Take `O=S(=O)(c1ccccc1)c1ccc2c3c(oc2c1)CN(CCCO)CC3` [Example 595]: for the setting “Table 1, class symbols”, the Ki is below 500 nM. `O=S(=O)(c1cccc(Cl)c1)c1ccc2c3c(oc2c1)C1CCCCN1CC3` (stereo not drawn) [Example 620]: the Ki (Table 1, class symbols) is below 500 nM. Same read-out and setting: under `O=S(=O)(c1ccc2c(c1)OC1CNCCC21)c1cccc(Cl)c1Cl` (stereo not drawn) [Example 162] stands below 500 nM.

For the compound `O=S(=O)(c1ccc2c3c(oc2c1)CNCC3)c1cccnc1F` [Example 434], the Ki (Table 1, class symbols) was below 500 nM. As for `O=S(=O)(c1ccc2c(c1)C1CCNCC1O2)c1cccc(Cl)c1Cl` (stereo not drawn) [Example 176], the inhibitory constant (Ki) (Table 1, class symbols) was below 500 nM.

With `Cc1cc(C)c(S(=O)(=O)Oc2ccc3c(c2)C2CCNCC2O3)c(C)c1` (stereo not drawn) [Example 715], the Ki (Table 1, class symbols) is below 500 nM.

As for `CC12CCN(C3CCCCC3)CC1Oc1ccc(OS(=O)(=O)Cc3ccccc3)cc12` (stereo not drawn) [Example 807], where the note is “Table 1, class symbols”, the inhibition constant Ki was above 1000 nM. Same read-out and setting: under `COc1ccc(S(=O)(=O)Oc2ccc3c(c2)C2CCNCC2O3)cc1` (stereo not drawn) [Example 707] stands 500 to 1000 nM. For `O=S(=O)(c1cccc(C(F)(F)F)c1)c1ccc2c(c1)OC1CNCCC21` (stereo not drawn) [Example 161, 7-{[3-(trifluoromethyl)phenyl]sulfonyl}-1,2,3,4,4a,9a-hexahydro[1]benzofuro[2,3-c]pyridine], the Ki is, setting by setting: (Table 1, class symbols) below 500 nM; (specific data) 44 nM. On to `O=S(=O)(Oc1ccc2c(c1)OC1CNCCC21)c1c(Cl)nc2sccn12` (stereo not drawn) [Example 793], for which the Ki (Table 1, class symbols) was below 500 nM. `O=S(=O)(Nc1ccc2c(c1)C1CCNCC1O2)c1cc2ccccc2s1` (stereo not drawn) [Example 834]: where the note is “Table 1, class symbols”, the Ki is below 500 nM. Still for that read-out and setting: to `O=S(=O)(c1cccc(OCCCO)c1)c1ccc2c(c1)OC1CNCCC21` (stereo not drawn) [Example 568] belongs below 500 nM; to `O=S(=O)(c1ccc2c3c(oc2c1)CNCC3)c1cccc2ccccc12` [Example 202], below 500 nM.

Take `O=S(=O)(c1cccc(OCC2CCOCC2)c1)c1ccc2c(c1)OC1CNCCC21` (stereo not drawn) [Example 581, 7-{[3-(tetrahydro-2H-pyran-4-ylmethoxy)phenyl]sulfonyl}-1,2,3,4,4a,9a-hexahydro[1]benzofuro[2,3-c]pyridine]: the Ki (Table 1, class symbols) was below 500 nM.

As for `O=S(=O)(c1ccc2c(c1)OC1CNCCC21)c1cccnc1F` (stereo not drawn) [Example 382], the inhibition constant (Ki) (Table 1, class symbols) is below 500 nM. Still for that read-out and setting: to `COc1ccc(S(=O)(=O)c2ccc3c(c2)OC2CNCCC32)cc1OC` (stereo not drawn) [Example 115] belongs above 1000 nM; to `CC1(C)NCCc2c1oc1cc(S(=O)(=O)c3cc(Cl)cnc3O)ccc21` [Example 373], above 1000 nM.

In the case of `CC(=O)N(C)CC1NCCc2c1oc1ccc(S(=O)(=O)c3cccc(F)c3)cc21` (stereo not drawn) [Example 533, N-({6-[(3-Fluorophenyl)sulfonyl]-1,2,3,4-tetrahydro[1]benzofuro[2,3-c]pyridin-1-yl}methyl)-N-methylacetamide], the Ki (Table 1, class symbols) is below 500 nM. On to `O=S(=O)(Oc1ccc2c(c1)C1CCNCC1O2)c1ccc(-c2cnco2)cc1` (stereo not drawn) [Example 734], for which, for the setting “Table 1, class symbols”, the Ki is above 1000 nM. Turning to `O=S(=O)(Oc1ccc2c(c1)C1CCNCC1O2)c1ccc(-c2ccccc2)cc1` (stereo not drawn) [Example 743], for the setting “Table 1, class symbols”, the Ki is below 500 nM. The same measure, in the same setting: to `O=S(=O)(c1cc(Cl)cc(Cl)c1)c1ccc2oc3c(c2c1)CCNC3` [Example 262, 6-[(3,5-dichlorophenyl)sulfonyl]-1,2,3,4-tetrahydro[1]benzofuro[2,3-c]pyridine] belongs below 500 nM. For `Cc1cccc(S(=O)(=O)c2ccc3c(c2)OC2CNCCC32)c1` (stereo not drawn) [Example 141], the inhibition constant Ki (Table 1, class symbols) is below 500 nM. The same measure, in the same setting: under `O=S(=O)(c1ccc2c(c1)OC1CNCCC21)c1ccc(Cl)c(C(F)(F)F)c1` (stereo not drawn) [Example 148] stands below 500 nM; under `COc1cc(OC)cc(S(=O)(=O)c2ccc3c(c2)OC2CNCCC32)c1` (stereo not drawn) [Example 480], below 500 nM.

Regarding `Cc1cc(C)cc(S(=O)(=O)Oc2ccc3c(c2)OC2CNCCC32)c1` (stereo not drawn) [Example 648], the Ki (Table 1, class symbols) was below 500 nM. Same read-out and setting: under `O=S(=O)(c1ccc2c(c1)OCCO2)c1ccc2c(c1)OC1CNCCC21` (stereo not drawn) [Example 119] stands below 500 nM; under `O=S(=O)(c1ccc2c(c1)OC1CNCCC21)c1cccnc1C(F)(F)F` (stereo not drawn) [Example 423], below 500 nM; under `O=S(=O)(c1cncc(F)c1)c1ccc2c3c(oc2c1)CNCC3` [Example 441], below 500 nM. For `Cc1c(Cl)cccc1S(=O)(=O)Oc1ccc2c(c1)C1CCNCC1O2` (stereo not drawn) [Example 718], the Ki (Table 1, class symbols) was below 500 nM. Consider `CC12CCNCC1Oc1cc(S(=O)(=O)c3ccc(F)cc3)ccc12` (stereo not drawn) [Example 356], for which the Ki (Table 1, class symbols) lay in the range of 500 to 1000 nM. Still for that read-out and setting: under `COc1ccc(S(=O)(=O)c2ccc3oc4c(c3c2)CCNC4C)cc1F` (stereo not drawn) [Example 285] stands above 1000 nM; under `O=S(=O)(Oc1ccc2c(c1)C1CCNCC1O2)c1cc2ccccc2o1` (stereo not drawn) [Example 713], below 500 nM; under `O=S(=O)(c1ccc(Oc2ccccc2)cc1)c1ccc2oc3c(c2c1)CCNC3` [Example 248], below 500 nM. Take `CC12CCNCC1Oc1ccc(OS(=O)(=O)Cc3ccccc3F)cc12` (stereo not drawn) [Example 786]: the Ki (Table 1, class symbols) is below 500 nM. As for `CN1CCC2(C)c3cc(OS(=O)(=O)Cc4ccccc4)ccc3OC2C1` (stereo not drawn) [Example 809], the Ki (Table 1, class symbols) was above 1000 nM. In the case of `O=S(=O)(Oc1ccc2c(c1)C1CCNCC1O2)c1ccc(F)cc1F` (stereo not drawn) [Example 712], where the note is “Table 1, class symbols”, the Ki is above 1000 nM. Still for that read-out and setting: under `CC(C)Oc1ncccc1[S+]([O-])c1ccc2oc3c(c2c1)CCNC3` (stereo not drawn) [Example 446] stands below 500 nM. The same measure, in the same setting: to `O=S(=O)(c1cccc(F)c1)c1ccc2c3c(oc2c1)C(CC(F)(F)F)NCC3` (stereo not drawn) [Example 507] belongs below 500 nM; to `O=S(=O)(c1cccc(F)c1)c1ccc2oc3c(c2c1)CCNC3CC(F)(F)F` (stereo not drawn) [Example 518], above 1000 nM; to `O=S(=O)(c1ccc2c(c1)C1CCNCC1O2)N1CCC2CCCCC2C1` (stereo not drawn) [Example 860], above 1000 nM. Turning to `O=S(=O)(c1ccc(F)c(F)c1)c1ccc2oc3c(c2c1)CCNC3` [Example 240], the Ki (Table 1, class symbols) was below 500 nM.

`O=S(=O)(c1ccc2c(c1)OC1CNCCC21)c1cccnc1Cl` (stereo not drawn) [Example 390]: the Ki (Table 1, class symbols) was below 500 nM. Consider `O=S(=O)(c1ccccc1)c1ccc2c3c(oc2c1)C1(CCCOC1)NCC3` (single isomer, unassigned) [Example 543, 7-(Phenylsulfonyl)-3,4,5′,6′-tetrahydro-2H,4′H-spiro[1-benzofuro[2,3-c]pyridine-1,3′-pyran]hydrochloride], for which, where the note is “Table 1, class symbols”, the Ki is below 500 nM. With `O=S(=O)(c1cccc(F)c1)c1ccc2c3c(oc2c1)C1(CCOCC1)NCC3` [Example 43, 7-[(3-fluorophenyl)sulfonyl]-2′,3,3′,4,5′,6′-hexahydro-2H-spiro[1-benzofuro[2,3-c]pyridine-1,4′-pyran]], the Ki (Table 1, class symbols) is below 500 nM.

On to `O=S(=O)(Nc1ccc2c(c1)C1CCNCC1O2)c1ccc2ccccc2c1` (stereo not drawn) [Example 819], for which, for the setting “Table 1, class symbols”, the Ki is below 500 nM.

`CC12CCNCC1Oc1ccc(OS(=O)(=O)Cc3cccc(Cl)c3)cc12` (stereo not drawn) [Example 791]: for the setting “Table 1, class symbols”, the Ki is below 500 nM.

These data come from patent publication US8765779B2, “Tricyclic derivatives and their pharmaceutical use and compositions” (Cephalon, Inc., priority 2009, dated 2014).
